Patent US6866861B1, “Method and composition for enhancing milk component concentrations” (Land O'Lakes, Inc., priority 1999, dated 2005)

Tested on: cows
Assay: Abomasal infusion of glycerol in early lactation cows, milk component concentrations (Example 4)
Type: in vivo, cow
Conditions: for Fat / Lactose / Total Solids / True Protein: 150 g/cow/day abomasal, average of 3 cows, early lactation
Experimental: To determine the weight percent total solids, wet basis, in a sample, the actual weight of total solids is determined by analyzing the sample in accordance with Method #925.23 (33.2.09) of Official Methods of Analysis, Association of Official Analytical Chemists (AOAC) (16th Ed., 1995). The weight percent total solids, wet basis, is then calculated by dividing the actual weight of total solids by the actual weight of the sample. The weight percent of true protein, wet basis, for a particular sample is calculated after first determining the wet basis weight percent of total Kjeldahl nitrogen and the wet basis weight percent of non-protein nitrogen in the sample. The wet basis weight percent of total Kjeldahl nitrogen in the sample is determined using the method referenced above. The wet basis weight percent of non-protein nitrogen (NPN) in the sample is determined in accordance with Method #991.21 (33.2.12) of Official Methods of Analysis, Association of Official Analytical Chemists (AOAC) (16th Ed., 1995). The weight percent of true protein, wet basis, in the sample is then determined by subtracting the wet basis weight percent of non-protein nitrogen in the sample from the wet basis weight percent of total Kjeldahl nitrogen in the sample. To determine the weight percent lactose, wet basis, in a liquid sample, the weight of the liquid sample is first determined. The actual weight of lactose in the liquid sample may then be determined using analysis kit number 176-303, that is available from Boehringer-Mannheim of Indianapolis, Ind. in accordance with the procedural instructions included with analysis kit number 176-303. The weight percent lactose, wet basis, in the liquid sample is then calculated by dividing the actual weight of lactose in the liquid sample by the actual weight of the liquid sample. To determine the weight percent fat, wet basis, in a sample, the actual weight of fat in the sample is determined in accordance with Method #974.09 (33.7.18) of Official Methods of Analysis, Association of Official Analytical Chemists (AOAC) (16th Ed., 1995). The weight percent fat, wet basis, is then calculated by dividing the actual weight of fat in the sample by the actual weight of the sample. In this example, glycerol was abomasally infused into three different cows at a rate of 150 grams per cow per day during a 14 day test period. The rations provided to the cows during the period extending from day 0, prior to abomasal infusion of glycerol, through day 14 of the test period were the same. The only difference in feeding of the cows between day 0 and days 1-14 of the test period were that during days 1-14 the cows were abomasally infused with the dosage of 150 grams of glycerol per cow per day. The glycerol was not combined with any other materials prior to being abomasally infused into the cattle. Milk from the three cows was collected and analyzed prior to infusion (on day 0) and also was collected and analyzed on the third, seventh and fourteenth day of the test period. The results presented in Table 4 below for each milk component for each particular day are averages for the milk collected from the three different cows. The net change for the different milk components presented in Table 4 was calculated by averaging the results of days 3, 7 and 14 for a particular milk component and subtracting the results presented for day 0 for the particular milk component. […] This increase in true protein concentration is particularly significant considering that the test cattle were in the early lactation phase (less than 90 days into milk production) when abomasally infused with glycerol. Typically, when being fed ordinary rations, the concentration of true protein in milk produced by lactating cattle decreases as the early lactation phase progresses.

[1] = abomasal infusion, early lactation phase
[2] = milk, average of days 3, 7, 14 minus day 0

OCC(O)CO [glycerol]
weight percent of fat in the milk (conclusion in words) [1]: substantially stabilized | weight percent of total solids in the milk (conclusion in words) [1]: substantially stabilized | weight percent of true protein in the milk (conclusion in words) [1]: net increase | Fat (milk, Day 3): 3.80 Wt % | Lactose (milk, Day 3): 4.78 Wt. % | Total Solids (milk, Day 3): 12.67 Wt. % | True Protein (milk, Day 3): 3.33 Wt. % | Fat (milk, Day 7): 3.53 Wt % | Lactose (milk, Day 7): 4.41 Wt. % | Total Solids (milk, Day 7): 12.04 Wt. % | True Protein (milk, Day 7): 3.32 Wt. % | Fat (milk, Day 14): 3.68 Wt % | Lactose (milk, Day 14): 4.51 Wt. % | Total Solids (milk, Day 14): 12.34 Wt. % | True Protein (milk, Day 14): 3.38 Wt. % | Fat, Net Change [2]: −0.11 Wt % | Lactose, Net Change [2]: −0.07 Wt. % | Total Solids, Net Change [2]: −0.05 Wt. % | True Protein, Net Change [2]: +0.11 Wt. % | decrease in the weight percent of lactose (milk, net change over test period): 0.07%
